± gives the expanded uncertainty stated by the source.
Experiment: xn = mol fraction of the nth substance listed
Settings: 100 kPa, Liquid; for viscosity: Falling or rolling sphere viscometry; for mass density: Vibrating tube method

Structure (SMILES): CCCC[N+]1(C)CCOCC1.[Br-] [4-butyl-4-methylmorpholinium bromide] + O
- viscosity (323.15 K, x1 = 0.0363): 1.039 ± 0.1 mPa·s
- viscosity (323.15 K, x1 = 0.0601): 1.578 ± 0.16 mPa·s
- viscosity (323.15 K, x1 = 0.0988): 2.745 ± 0.28 mPa·s
- viscosity (323.15 K, x1 = 0.1242): 3.912 ± 0.39 mPa·s
- viscosity (323.15 K, x1 = 0.154): 5.805 ± 0.58 mPa·s
- viscosity (323.15 K, x1 = 0.2027): 10.72 ± 1.1 mPa·s
- viscosity (323.15 K, x1 = 0.2383): 16.36 ± 1.6 mPa·s
- viscosity (323.15 K, x1 = 0.2569): 22.35 ± 2.2 mPa·s
- viscosity (323.15 K, x1 = 0.3007): 36.9 ± 3.7 mPa·s
- mass density (323.15 K, x1 = 0.0017): 993 ± 1.2 kg/m3
- mass density (323.15 K, x1 = 0.0033): 997.7 ± 1.2 kg/m3
- mass density (323.15 K, x1 = 0.0066): 1007 ± 1.1 kg/m3
- mass density (323.15 K, x1 = 0.0088): 1012.9 ± 1.1 kg/m3
- mass density (323.15 K, x1 = 0.0167): 1032.5 ± 1.1 kg/m3
- mass density (323.15 K, x1 = 0.034): 1068.8 ± 1.1 kg/m3
- mass density (323.15 K, x1 = 0.0363): 1073.2 ± 1.1 kg/m3
- mass density (323.15 K, x1 = 0.0601): 1110.8 ± 1 kg/m3
- mass density (323.15 K, x1 = 0.0988): 1154.6 ± 1 kg/m3
- mass density (323.15 K, x1 = 0.1242): 1175.3 ± 1 kg/m3
- mass density (323.15 K, x1 = 0.154): 1194.4 ± 1 kg/m3
- mass density (323.15 K, x1 = 0.2027): 1217.7 ± 1.1 kg/m3
- mass density (323.15 K, x1 = 0.2383): 1230.5 ± 1.1 kg/m3
- mass density (323.15 K, x1 = 0.2569): 1235.9 ± 1.2 kg/m3
- mass density (323.15 K, x1 = 0.3007): 1247.2 ± 1.3 kg/m3
- viscosity (328.15 K, x1 = 0.0363): 0.923 ± 0.093 mPa·s
- viscosity (328.15 K, x1 = 0.0601): 1.387 ± 0.14 mPa·s
- viscosity (328.15 K, x1 = 0.0988): 2.377 ± 0.24 mPa·s
- viscosity (328.15 K, x1 = 0.1242): 3.323 ± 0.33 mPa·s
- viscosity (328.15 K, x1 = 0.154): 4.888 ± 0.49 mPa·s
- viscosity (328.15 K, x1 = 0.2027): 8.882 ± 0.89 mPa·s
- viscosity (328.15 K, x1 = 0.2383): 13.28 ± 1.3 mPa·s
- viscosity (328.15 K, x1 = 0.2569): 18.01 ± 1.8 mPa·s
- viscosity (328.15 K, x1 = 0.3007): 29.03 ± 2.9 mPa·s
- mass density (328.15 K, x1 = 0.0017): 990.6 ± 1.2 kg/m3
- mass density (328.15 K, x1 = 0.0033): 995.3 ± 1.2 kg/m3
- mass density (328.15 K, x1 = 0.0066): 1004.5 ± 1.1 kg/m3
- mass density (328.15 K, x1 = 0.0088): 1010.4 ± 1.1 kg/m3
- mass density (328.15 K, x1 = 0.0167): 1029.8 ± 1.1 kg/m3
- mass density (328.15 K, x1 = 0.034): 1065.9 ± 1.1 kg/m3
- mass density (328.15 K, x1 = 0.0363): 1070.1 ± 1.1 kg/m3
- mass density (328.15 K, x1 = 0.0601): 1107.6 ± 1 kg/m3
- mass density (328.15 K, x1 = 0.0988): 1151.2 ± 1 kg/m3
- mass density (328.15 K, x1 = 0.1242): 1171.8 ± 1 kg/m3
- mass density (328.15 K, x1 = 0.154): 1191 ± 1 kg/m3
- mass density (328.15 K, x1 = 0.2027): 1214.3 ± 1.1 kg/m3
- mass density (328.15 K, x1 = 0.2383): 1227.1 ± 1.1 kg/m3
- mass density (328.15 K, x1 = 0.2569): 1232.5 ± 1.2 kg/m3
- mass density (328.15 K, x1 = 0.3007): 1243.9 ± 1.3 kg/m3
- viscosity (333.15 K, x1 = 0.0363): 0.83 ± 0.083 mPa·s
- viscosity (333.15 K, x1 = 0.0601): 1.233 ± 0.12 mPa·s
- viscosity (333.15 K, x1 = 0.0988): 2.082 ± 0.21 mPa·s
- viscosity (333.15 K, x1 = 0.1242): 2.867 ± 0.29 mPa·s
- viscosity (333.15 K, x1 = 0.154): 4.16 ± 0.42 mPa·s
- viscosity (333.15 K, x1 = 0.2027): 7.465 ± 0.75 mPa·s
- viscosity (333.15 K, x1 = 0.2383): 10.98 ± 1.1 mPa·s
- viscosity (333.15 K, x1 = 0.2569): 14.86 ± 1.5 mPa·s
- viscosity (333.15 K, x1 = 0.3007): 23.47 ± 2.4 mPa·s
- mass density (333.15 K, x1 = 0.0017): 988.1 ± 1.2 kg/m3
- mass density (333.15 K, x1 = 0.0033): 992.7 ± 1.1 kg/m3
- mass density (333.15 K, x1 = 0.0066): 1001.9 ± 1.1 kg/m3
- mass density (333.15 K, x1 = 0.0088): 1007.8 ± 1.1 kg/m3
- mass density (333.15 K, x1 = 0.0167): 1027.1 ± 1.1 kg/m3
- mass density (333.15 K, x1 = 0.034): 1062.9 ± 1.1 kg/m3
- mass density (333.15 K, x1 = 0.0363): 1067.3 ± 1.1 kg/m3
- mass density (333.15 K, x1 = 0.0601): 1104.4 ± 1 kg/m3
- mass density (333.15 K, x1 = 0.0988): 1147.8 ± 1 kg/m3
- mass density (333.15 K, x1 = 0.1242): 1168.4 ± 1 kg/m3
- mass density (333.15 K, x1 = 0.154): 1187.5 ± 1 kg/m3
- mass density (333.15 K, x1 = 0.2027): 1210.8 ± 1.1 kg/m3
- mass density (333.15 K, x1 = 0.2383): 1223.7 ± 1.1 kg/m3
- mass density (333.15 K, x1 = 0.2569): 1229.1 ± 1.2 kg/m3
- mass density (333.15 K, x1 = 0.3007): 1240.5 ± 1.3 kg/m3
- viscosity (338.15 K, x1 = 0.0363): 0.751 ± 0.075 mPa·s
- viscosity (338.15 K, x1 = 0.0601): 1.106 ± 0.11 mPa·s
- viscosity (338.15 K, x1 = 0.0988): 1.836 ± 0.18 mPa·s
- viscosity (338.15 K, x1 = 0.1242): 2.502 ± 0.25 mPa·s
- viscosity (338.15 K, x1 = 0.154): 3.568 ± 0.36 mPa·s
- viscosity (338.15 K, x1 = 0.2027): 6.337 ± 0.64 mPa·s
- viscosity (338.15 K, x1 = 0.2383): 9.093 ± 0.91 mPa·s
- viscosity (338.15 K, x1 = 0.2569): 12.32 ± 1.2 mPa·s
- viscosity (338.15 K, x1 = 0.3007): 19.19 ± 1.9 mPa·s
- mass density (338.15 K, x1 = 0.0017): 985.4 ± 1.2 kg/m3
- mass density (338.15 K, x1 = 0.0033): 990 ± 1.1 kg/m3
- mass density (338.15 K, x1 = 0.0066): 999.2 ± 1.1 kg/m3
- mass density (338.15 K, x1 = 0.0088): 1005 ± 1.1 kg/m3
- mass density (338.15 K, x1 = 0.0167): 1024.2 ± 1.1 kg/m3
- mass density (338.15 K, x1 = 0.034): 1059.9 ± 1.1 kg/m3
- mass density (338.15 K, x1 = 0.0363): 1064.3 ± 1.1 kg/m3
- mass density (338.15 K, x1 = 0.0601): 1101.1 ± 1 kg/m3
- mass density (338.15 K, x1 = 0.0988): 1144.3 ± 1 kg/m3
- mass density (338.15 K, x1 = 0.1242): 1164.8 ± 1 kg/m3
- mass density (338.15 K, x1 = 0.154): 1184 ± 1 kg/m3
- mass density (338.15 K, x1 = 0.2027): 1207.3 ± 1.1 kg/m3
- mass density (338.15 K, x1 = 0.2383): 1220.3 ± 1.1 kg/m3
- mass density (338.15 K, x1 = 0.2569): 1225.8 ± 1.2 kg/m3
- mass density (338.15 K, x1 = 0.3007): 1237.2 ± 1.3 kg/m3
- viscosity (343.15 K, x1 = 0.0363): 0.685 ± 0.069 mPa·s
- viscosity (343.15 K, x1 = 0.0601): 0.992 ± 0.1 mPa·s
- viscosity (343.15 K, x1 = 0.0988): 1.633 ± 0.16 mPa·s
- viscosity (343.15 K, x1 = 0.1242): 2.288 ± 0.23 mPa·s
- viscosity (343.15 K, x1 = 0.154): 3.149 ± 0.32 mPa·s
- viscosity (343.15 K, x1 = 0.2027): 5.442 ± 0.55 mPa·s
- viscosity (343.15 K, x1 = 0.2383): 7.452 ± 0.75 mPa·s
- viscosity (343.15 K, x1 = 0.2569): 10.42 ± 1.1 mPa·s
- viscosity (343.15 K, x1 = 0.3007): 15.92 ± 1.6 mPa·s
- mass density (343.15 K, x1 = 0.0017): 982.6 ± 1.1 kg/m3
- mass density (343.15 K, x1 = 0.0033): 987.2 ± 1.1 kg/m3
- mass density (343.15 K, x1 = 0.0066): 996.3 ± 1.1 kg/m3
- mass density (343.15 K, x1 = 0.0088): 1002.1 ± 1.1 kg/m3
- mass density (343.15 K, x1 = 0.0167): 1021.2 ± 1.1 kg/m3
- mass density (343.15 K, x1 = 0.034): 1056.7 ± 1.1 kg/m3
- mass density (343.15 K, x1 = 0.0363): 1061.1 ± 1.1 kg/m3
- mass density (343.15 K, x1 = 0.0601): 1097.5 ± 1 kg/m3
- mass density (343.15 K, x1 = 0.0988): 1140.8 ± 1 kg/m3
- mass density (343.15 K, x1 = 0.1242): 1161.3 ± 1 kg/m3
- mass density (343.15 K, x1 = 0.154): 1180.4 ± 1 kg/m3
- mass density (343.15 K, x1 = 0.2027): 1203.8 ± 1.1 kg/m3
- mass density (343.15 K, x1 = 0.2383): 1216.8 ± 1.1 kg/m3
- mass density (343.15 K, x1 = 0.2569): 1222.4 ± 1.2 kg/m3
- mass density (343.15 K, x1 = 0.3007): 1233.8 ± 1.3 kg/m3

Reference: the NIST ThermoML archive (doi:10.1016/j.jct.2016.03.030)
